From patent US11484601B2, “Targeting M2-like tumor-associated macrophages by using melittin-based proapoptotic peptide” (TWI[…]., priority 2018, dated 2022) come the findings set out here.

The subject of this experiment is M2 macrophage (RAW264.7 differentiated into M2-type with IL-4 and IL-13). The experiment in a line: MTS cell viability assay, M2-type macrophage. The experiment is classed as cell-based, mouse. As to conditions: compared with MEL and DM1 alone. The procedure:
More specifically, dKLA (SEQ ID NO: 2), MEL (SEQ ID NO: 1), MEL-dKLA (SEQ ID NO: 3; […]-d[KLAKLAKKLAKLAK]) peptide and 5-carboxyl tetramethylrhodamine (TMR)-conjugated dKLA, MEL and MEL-KLA peptides were purchased from GenScript (Piscataway, N.J., USA). TMR was conjugated with the amino group located at the N-terminal of the peptide. Regarding all of the peptides, 95% or greater purified peptides were used. Murine Lewis lung carcinoma (LLC) cells and macrophage RAW264.7 of mice were cultured in Dulbecco's modified Eagle's medium (DMEM; Welgene, Korea) to which 10% heat-inactivated fetal bovine serum (Welgene), 100 U/mL penicillin and 100 μg/mL streptomycin (Invitrogen, CA, USA) were added. Macrophage (RAW264.7) differentiated into M2-type was treated with IL-4 and IL-13 in the medium for 24 hours. After the treatment, the cells were cultured in a state in which serum was insufficient for 48 hours. M1-type macrophage was treated with 1 ng/mL of LPS for 24 hours to induce differentiation.
The cell viability test was measured via the MTS assay. RAW264.7 macrophage was differentiated into M1-type or M2-type macrophage which was inoculated onto a 96-well plate at 3×10^4 cells/well. The next day, the macrophage was treated with each of PBS, dKLA, MEL and MEL-dKLA. After 24 hours, the culture solution was replaced and the cell was treated with 20 μL MTS reaction solution (Promega, WI, USA), followed by reaction at 37° C. Then, […] was measured at 490 nm to measure cell viability.
The MEL-DM1 anticancer drug conjugation method and cell test method are as described above.

In the case of “MEL-DM1: melittin with N-terminal maleimide covalently bound to the free-sulfhydryl group of maytansine DM1”, the “M2 selective cell killing effect” value is given as “higher M2 selective cell killing effect”.
